The numbers were not newly measured in patent publication US20100080846A1, “DIPYRIDAMOLE AND […] ACID FORMULATIONS AND PROCESS FOR PREPARING SAME” (priority 2008, published 2010), which cites them from elsewhere.

The conditions of this data set: above a pH of 4.

For `OCCN(CCO)c1nc(N2CCCCC2)c2nc(N(CCO)CCO)nc(N3CCCCC3)c2n1` [Dipyridamole, 2,6-bis-(diethanolamino)-4,8-dipiperidino-(5,4-d)-pyrimidine], the solubility in water result was “practically insoluble”.
